# Assay results published in patent US20050209278A1, “Piperidinyl- and piperazinyl-sulfonylmethyl hydroxamic acids and their use as protease inhibitors” (priority 2002, published 2005).
# Tests used:
# [1] = target: T1, MMP-14 (Homo sapiens, UniProt P50281); assay: In vitro MMP inhibition, Ki determination (fluorogenic substrate II); assay type: biochemical; conditions: value not in parenthesis; read-out: MMP-14 Ki
# T1 construct: The catalytic domain enzyme was expressed in E. coli inclusion bodies, solubilized in urea; made in house
# Outline: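 E. coli-expressed, refolded MMP-14 catalytic domain, activated with APMA or trypsin, in 100 mM Tris-HCl pH 7.5, 100 mM NaCl, 10 mM CaCl2, 0.05% Brij-type detergent. Apparent Ki by Morrison-equation regression of velocity vs inhibitor and enzyme concentration.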
# [2] = target: T2, MMP-2 (Homo sapiens, UniProt P08253); assay: as above; assay type: biochemical; conditions: value not in parenthesis; read-out: MMP-2 Ki
# T2 construct: made in house; host or cells: MMP-2-transfected p2AHT2 cells
# T2 sequence (P08253 110-660): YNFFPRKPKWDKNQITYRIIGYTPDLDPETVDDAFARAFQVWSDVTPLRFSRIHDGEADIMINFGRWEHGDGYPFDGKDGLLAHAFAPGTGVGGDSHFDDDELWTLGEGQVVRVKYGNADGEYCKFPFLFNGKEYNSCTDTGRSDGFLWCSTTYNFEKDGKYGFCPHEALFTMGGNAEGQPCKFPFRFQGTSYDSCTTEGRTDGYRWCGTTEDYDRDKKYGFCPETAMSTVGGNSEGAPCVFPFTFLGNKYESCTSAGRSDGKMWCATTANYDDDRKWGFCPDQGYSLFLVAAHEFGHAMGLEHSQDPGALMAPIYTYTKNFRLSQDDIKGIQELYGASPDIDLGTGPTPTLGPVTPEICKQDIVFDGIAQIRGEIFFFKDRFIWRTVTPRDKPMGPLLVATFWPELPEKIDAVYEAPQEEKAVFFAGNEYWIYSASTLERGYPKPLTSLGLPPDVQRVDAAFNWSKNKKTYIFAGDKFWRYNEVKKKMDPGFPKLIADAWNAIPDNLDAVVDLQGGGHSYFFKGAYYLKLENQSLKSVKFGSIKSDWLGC
Structure (SMILES),Ki [1] [nM],Ki [2] [nM]
O=C(NO)C1(S(=O)(=O)N2CCN(c3ccc(OCCN4CCCC4)cc3)CC2)CCOCC1 [Example 162],> 10000,18.4
O=C(NO)C1(S(=O)(=O)N2CCN(c3nncs3)CC2)CCOCC1 [Example 215],> 10000,2370
CCCC(C)Cc1ccc(N2CCN(S(=O)(=O)C3(C(=O)NO)CCN(CCOC)CC3)CC2)cc1 (stereo not drawn) [Example 189],> 10000,9.78
CCCCOc1ccc(N2CCN(S(=O)(=O)C3(C(=O)NO)CCN(C(=O)NC(C)(C)C)CC3)CC2)cc1 [Example 240],3960,0.536
CCCCOc1ccc(N2CCN(S(=O)(=O)C3(C(=O)NO)CCN(c4ccc5c(c4)OCO5)CC3)CC2)cc1 [Example 221],> 10000,8.53
CCCCOc1ccc(N2CCN(S(=O)(=O)C3(C(=O)NO)CCN(C(=O)c4ccco4)CC3)CC2)cc1 [Example 156],2430,0.75
O=C(NO)C1(S(=O)(=O)N2CCN(c3ccc(SC(F)(F)F)cc3)CC2)CCOCC1 [Example 170],453,0.24
CCCCCc1ccc(N2CCN(S(=O)(=O)C3(C(=O)NO)CCOCC3)CC2)nn1 [Example 197],> 10000,5.78
O=C(NO)C1(S(=O)(=O)N2CCN(c3ccccn3)CC2)CCOCC1 [Example 169],84.9,1.09
O=C(NO)C1(S(=O)(=O)N2CCN(c3cnc(CCC(F)(F)C(F)(F)F)cn3)CC2)CCOCC1 [Example 210],4470,1.04
CCCCCc1ccc(N2CCN(S(=O)(=O)C3(C(=O)NO)CCN(S(C)(=O)=O)CC3)CC2)cc1 [Example 237],7120,2.03
O=C(NO)C1(S(=O)(=O)N2CCN(c3cnc(CCC(F)(F)F)cn3)CC2)CCOCC1 [Example 218],4570,1.39
CCCCOc1ccc(N2CCN(S(=O)(=O)C3(C(=O)NO)CCN(CCOC)CC3)CC2)cn1 [Example 164],8880,28.6
CCCCOc1ccc(N2CCN(S(=O)(=O)C3(C(=O)NO)CCN(c4ccsc4)CC3)CC2)cc1 [Example 223],7100,3.46
COCCN1CCC(C(=O)NO)(S(=O)(=O)N2CCN(c3ccccn3)CC2)CC1 [Example 176],181,1.59
CCCCOc1ccc(N2CCN(S(=O)(=O)C3(C(=O)NO)CCN(C(=O)N4CCCC4)CC3)CC2)cc1 [Example 231],1530,1.32
CCCc1cnc(N2CCN(S(=O)(=O)C3(C(=O)NO)CCN(CCOC)CC3)CC2)nc1 [Example 178],2590,7.88
CCCCc1ccc(N2CCN(S(=O)(=O)C(C)C(=O)NO)CC2)nc1 (stereo not drawn) [Example 217],1510,0.29
O=C(NO)C1(S(=O)(=O)N2CCN(c3ccc(OC(F)(F)C(F)F)cc3)CC2)CCSCC1 [Example 62],1150,0.22

Structure (SMILES),Ki [1] [nM],Ki [2] [nM]
CCCCOc1ccc(N2CCN(S(=O)(=O)C3(C(=O)NO)CCN(c4ccc(C#N)cc4)CC3)CC2)cc1 [Example 225],> 10000,9.28
CCCCOc1ccc(N2CCN(S(=O)(=O)C3(C(=O)NO)CCN(C(=O)c4cccs4)CC3)CC2)cc1 [Example 160],2760,0.599
CCCCOc1ccc(N2CCN(S(=O)(=O)C3(C(=O)NO)CCS(=O)(=O)CC3)CC2)cc1 [Example 222],> 10000,7.88
CCCCOc1ccc(N2CCN(S(=O)(=O)C3(C(=O)NO)CCN(CCN(CC)CC)CC3)CC2)cc1 [Example 235],3960,0.76
COCCN1CCC(C(=O)NO)(S(=O)(=O)N2CCN(c3nc4ccccc4o3)CC2)CC1 [Example 196],6840,25.1
CCc1ccc(N2CCN(S(=O)(=O)C3(C(=O)NO)CCN(CCOC)CC3)CC2)cc1 [Example 193],403,1.21
CCCCOc1ccc(N2CCN(S(=O)(=O)C3(C(=O)NO)CCN(Cc4ncc[nH]4)CC3)CC2)cc1 [Example 247],1980,0.686
COCCN1CCC(C(=O)NO)(S(=O)(=O)N2CCN(c3ccc(CC(C)C)cc3)CC2)CC1 [Example 192],6980,1.9
O=C(NO)C1(S(=O)(=O)N2CCN(c3ccc(OC(F)(F)F)cc3)CC2)CCN(C2CC2)CC1 [Example 203],569,0.28
CCCCc1ccc(N2CCN(S(=O)(=O)C3(C(=O)NO)CCN(CCOC)CC3)CC2)cc1F [Example 173],1860,0.209
O=C(NO)C1(S(=O)(=O)N2CCN(c3ccc(OCC(F)(F)C(F)(F)F)cc3)CC2)CCOCC1 [Example 212],5630,0.54
CCCCCCc1ccc(N2CCN(S(=O)(=O)C3(C(=O)NO)CCN(CCOC)CC3)CC2)cc1 [Example 199],4620,0.633
COCCN1CCC(C(=O)NO)(S(=O)(=O)N2CCN(c3ccccc3)CC2)CC1 [Example 195],414,6.17
CCCCOc1ccc(N2CCN(S(=O)(=O)C3(C(=O)NO)CCN(C(=O)N(C(C)C)C(C)C)CC3)CC2)cc1 [Example 244],5310,1.57
O=C(NO)C1(S(=O)(=O)N2CCN(c3cnc(CCCC(F)(F)F)cn3)CC2)CCOCC1 [Example 209],> 10000,3.79
CCCCOc1ccc(N2CCN(S(=O)(=O)C3(C(=O)NO)CCN(c4ncccn4)CC3)CC2)cc1 [Example 159],2060,0.702
COCCN1CCC(C(=O)NO)(S(=O)(=O)N2CCN(c3ccc(Br)cc3)CC2)CC1 [Example 201],120,0.521
CCCCOc1ccc(N2CCN(S(=O)(=O)C3(C(=O)NO)CCN(C(=O)N4CCCCC4)CC3)CC2)cc1 [Example 243],2050,0.34
CCCCOc1ccc(N2CCN(S(=O)(=O)C3(C(=O)NO)CCN(c4ccc(OC)cc4)CC3)CC2)cc1 [Example 249],> 10000,4.98

Structure (SMILES),Ki [1] [nM],Ki [2] [nM]
CCCCOc1ccc(N2CCN(S(=O)(=O)C3(C(=O)NO)CCN(C(=O)N4CCN(C)CC4)CC3)CC2)cc1 [Example 230],2510,0.46
CC(C)Cc1ccc(N2CCN(S(=O)(=O)C3(C(=O)NO)CCOCC3)CC2)c(F)c1 [Example 213],4280,12.6
CCCCOc1ccc(N2CCN(S(=O)(=O)C3(C(=O)NO)CCN(CCCC(F)(F)F)CC3)CC2)cc1 [Example 238],6040,1.63
CCCc1ccc(N2CCN(S(=O)(=O)C3(C(=O)NO)CCN(CCOC)CC3)CC2)cc1 [Example 200],842,0.524
CCCCOc1ccc(N2CCN(S(=O)(=O)C3(C(=O)NO)CCN(Cc4nccn4C)CC3)CC2)cc1 [Example 245],2810,0.475
CCCCc1nnc(N2CCN(S(=O)(=O)C3(C(=O)NO)CCOCC3)CC2)s1 [Example 214],> 10000,102
CCCCOc1ccc(N2CCN(S(=O)(=O)C3(C(=O)NO)CCN(c4ccc(N(C)C)cc4)CC3)CC2)cc1 [Example 241],> 10000,3.64
CCCCOc1ccc(N2CCN(S(=O)(=O)C3(C(=O)NO)CCN(c4nccs4)CC3)CC2)cc1 [Example 157],2760,1.47
O=C(NO)C1(S(=O)(=O)N2CCN(c3ccc(Cl)nn3)CC2)CCOCC1 [Example 198],1280,8.28
CCCCOc1ccc(N2CCN(S(=O)(=O)C3(C(=O)NO)CCSCC3)CC2)cc1 [Example 232],3510,26.5
CCCCOc1ccc(N2CCN(S(=O)(=O)C3(C(=O)NO)CCN(CCN4CCOCC4)CC3)CC2)cc1 [Example 233],3080,0.771
CCCCCc1ccc(N2CCN(S(=O)(=O)C3(C(=O)NO)CCN(S(N)(=O)=O)CC3)CC2)cc1 [Example 205],5020,2.03
Cc1ccc(N2CCC(C(=O)NO)(S(=O)(=O)N3CCN(c4ccc(OCCCC(F)(F)F)cc4)CC3)CC2)cc1 [Example 161],> 10000,8.26
COCCN1CCC(C(=O)NO)(S(=O)(=O)N2CCN(c3ccc(OCC(C)C)c(F)c3)CC2)CC1 [Example 166],> 10000,0.72
CCCCOc1ccc(N2CCN(S(=O)(=O)C3(C(=O)NO)CCN(c4ccc(OC(F)(F)C(F)F)cc4)CC3)CC2)cc1 [Example 65],> 10000,23.6
CCCCCc1cnc(N2CCN(S(=O)(=O)C3(C(=O)NO)CCOCC3)CC2)cn1 [Example 219],3210,2.5
COCCN1CCC(C(=O)NO)(S(=O)(=O)N2CCN(c3ccc(C)cc3)CC2)CC1 [Example 194],307,1.74
COCCN1CCC(C(=O)NO)(S(=O)(=O)N2CCN(c3ccc(CCCCC(C)C)cc3)CC2)CC1 [Example 191],6690,0.986
O=C(NO)C1(S(=O)(=O)N2CCN(c3ccc(COCC(F)(F)C(F)(F)F)cc3)CC2)CCOCC1 [Example 70],> 10000,2.57
